Patent US20230270119A1, “BIOSTIMULANT AND BIOPROTECTIVE PEPTIDES AND THEIR USE IN AGRICULTURE” (priority 2020, published 2023)

Key:
Alternaria alternata = Alternaria alternata necrosis areas on treated tomato leaves; type: in vivo; conditions: 100 fM, day 8, control 17 mm^2 (FIG. 14B)
Procedure: (§1) For the performance of assays on the phytopathogenic Botrytis cinerea and Alternaria alternata fungi, the present inventors used spores of this microorganism obtained from cultures on solid PDA (Potato Dextrose Agar) sporulation substrate. The plates were inoculated with 20 μl of a conidial suspension at a concentration of 1×10^6 spores/ml and incubated for 15 days at 25° C. in the presence of diffused light, so as to obtain complete sporulation. The spores were then collected in 5 ml of sterile water and, in order to remove the mycelium, were filtered through glass wool, washed with sterile distilled water and collected by centrifugation at room temperature. The concentration of spores suitable for inoculation (10^5-10^7 spores/ml) was determined by the serial dilution method using a Burker cell counting chamber for spore counting.
(§2) The assay was carried out on a detached leaf by taking a compound leaf for each treated tomato plant and for each control plant. Each leaflet of the compound leaf was marked with 3 markers in order to guide the subsequent application of the spores and detection of the pathogen developing necrotic areas.
The present inventors also performed assays aimed at determining the effects of exogenous application of the peptides of the invention on tomato plants against the development of the necrotrophic Alternaria alternata fungus (FIG. 14).
The positive effect of the treatment was statistically significant from day 1 of inoculation of the pathogen to day 8 where values of 24 mm^2 were reached on the control leaves, unlike the treated leaves where values of 8.4 and 8.0 mm^2 were recorded on leaves treated with the peptides PS1-70 and PS1-120 at a concentration of 100 fM (FIG. 14A); and values of 17 mm^2 were recorded on the control leaves and values of 8.3 mm^2, 7.9 mm^2, 8.9 mm^2, and 7.8 mm^2 were recorded on leaves treated with the peptides PS1-70, SEQ ID NO.8, SEQ ID NO.3 and SEQ ID NO.5, respectively, at a concentration of 100 fM (FIG. 14B).

Botrytis cinerea = Botrytis cinerea necrosis areas on treated detached tomato leaves; type: in vivo, Botrytis cinerea on Solanum lycopersicum; conditions: 100 fM, day 8, control 11.72 mm^2 (FIG. 13)
Procedure: as §1, §2
The leaves were treated by applying 2 μl of a composition comprising the peptides PS1-70 and PS1-120 of the invention at a concentration of 100 pM, 100 fM or 1×PBS for the control leaves. After 6 hours, the time necessary for the perception of the peptides, the leaves were detached from the plant and inoculations with 10 μl of spore solution were carried out in the internerve spaces and near the previously marked points. Monitoring was carried out by measuring the necrosis areas (expressed in mm^2) 1, 3, 5, 8 days after inoculation of the pathogen. The necrosis areas recorded on the control leaves were much larger than those detected on plants treated with the peptides of the invention. This difference increased as a function of the time elapsed since inoculation. The resistance inducing effect of the picomolar treatment is already statistically significant from the first day of inoculation of the pathogen up to the eighth day where values of 33 mm^2 were reached on the control leaves, unlike the treated leaves where values not exceeding 18 mm^2 were recorded for both peptides (FIG. 12A).

[1] = tested on: Spodoptera littoralis larvae; experiment: Bioassay on Spodoptera littoralis larvae fed with peptide-treated tomato leaves; type: in vivo; conditions: day 13, femtomolar concentration; for average weight of larvae: control 59 mg (FIG. 11A); for survival rate of larvae: control 100% (FIG. 11B)
Procedure: Briefly, S. littoralis larvae were grown in a climate chamber at 25° C., 70% relative humidity (RH), with a 16-hour light and 8-hour dark photoperiod and fed with an artificial diet until completion of the first moult. For the bioassays, 150 larvae for each thesis were grown on tomato leaves for the entire duration of the second instar to adapt them to the different diet. The newly moulted third-instar larvae up to the moult stage were fed with plants on which a composition comprising peptides PS1-70 and PS1-120 had been applied at 100 pM and 100 fM concentrations in 1×PBS buffer. Larvae fed with plants treated with 1×PBS buffer only were used as a control. Bioassays were carried out under the same environmental conditions, in 32-well plastic trays containing 1.5% (w/v) agar and 0.005% (w/v) methyl parahydroxybenzoate, which are useful for creating a humid environment for maintaining cell turgor of tomato leaves. Each experimental group consisted of 32 larvae. The survival of the larvae was monitored daily, and their weight every other day. […] A significant decrease in the survival of larvae fed with leaves of plants treated with the peptides of the invention compared to those fed with leaves of the control plants was also observed for both assays (FIGS. 10B and 10D). […] The same assay scheme was carried out by the present inventors by feeding S. littoralis larvae with leaves treated with the peptide PS1-70 and with peptides having the sequences SEQ ID NO. 3, 5, and 8 at femtomolar concentration. […] A significant decrease was also observed in the survival of larvae fed with peptide-treated leaves compared to those fed with the control leaves (FIG. 11B). […] 8, SEQ ID NO. 3, and SEQ ID NO. 5 (FIG. 11B).

CAT2, SAM and APX2 genes = experiment: Salt stress gene expression in tomato plants irrigated with 100 fM peptides; type: in vivo; conditions: femtomolar
Procedure: The analysis was carried out on the CAT2(A), SAM (B) and APX2 (C) genes. The asterisks indicate the statistical significance of the data by Student's t-test (*p<0.05; **p<0.01; ***p<0.001). […] An experiment was also set up to verify the efficiency of the peptides PS1-70, PS1-120 and SEQ ID NO.5, when administered at femtomolar concentrations, in promoting tolerance to a high salt stress condition.

[2] = Biometric parameters of tomato plants irrigated with peptides; type: in vivo; conditions: 100 fM
Procedure: FIG. 20 illustrates the effect of irrigation treatment with the peptides PS1-70, PS1-120 and SEQ ID NO.5 at a concentration of 100 fM on the biometric parameters of the tomato plant. […] The asterisks indicate the statistical significance of the data by Student's t-test (*p<0.05). A few biometric parameters are shown in FIG. 20, measured after 14 days of continuous salt stress (150 mM) and 15 days after irrigation with the peptides PS1-70, PS1-120 and SEQ ID NO.5 at 100 fM concentrations, and the respective controls.

EKETPSQDI [SEQ ID NO. 3]
necrosis areas (Alternaria alternata): 8.9 mm^2 | necrosis areas (Botrytis cinerea): 8.89 mm^2 | average weight of larvae [1]: 24 mg | survival rate of larvae [1]: 43.75%

DDMQEEPKVKLHHEKGGDEKEKIIEKETPSQDI [SEQ ID NO. 8]
necrosis areas (Alternaria alternata): 7.9 mm^2 | necrosis areas (Botrytis cinerea): 7.67 mm^2 | average weight of larvae [1]: 13 mg | survival rate of larvae [1]: 15.62%

DDMQEEPKVKLHHEKG [SEQ ID NO. 5]
activation of salt stress-responsive genes (CAT2, SAM and APX2 genes; 8 days after irrigation, 0 mM NaCl (FIG. 18A1, B1, C1)): able to activate a series of salt stress-responsive genes | tolerance to salt / induction of responsive genes (CAT2, SAM and APX2 genes; irrigated 7 days with 150 mM NaCl (FIG. 18A2, B2, C2)): more salt-tolerant than the untreated control plants | root surface (root area) ([2]; 14 days of salt stress 150 mM, 15 days after irrigation (FIG. 20A)): greater root surface | growth (fresh weight) of the aerial part ([2]; absence of salt (FIG. 20B)): able to promote the growth of the aerial part of the plant | necrosis areas (Alternaria alternata): 7.8 mm^2 | necrosis areas (Botrytis cinerea): 6.81 mm^2 | average weight of larvae [1]: 21 mg | survival rate of larvae [1]: 15.62%
